Like-named read-outs stand apart in the source and are kept apart here. Values belong to the molecule of their own block, whether it stands above or below them.
Assays:
[1] = system: porcine liver esterase; test: Esterase-catalyzed hydrolysis followed by UV spectrophotometry; type: in vitro ADME; details: pH 7.4
Experimental: FIGS. 4A-C are graphs illustrating spontaneous hydrolysis (FIGS. 4A and 4B) and esterase-catalyzed hydrolysis (FIG. 4C) of 2 in an embodiment of the invention. In FIG. 4A, spectra were collected every 60 s (10-min intervals shown) after dissolving 2 in PBS (pH 7.4) at 37° C., and only loss of the parent compound was observed. In FIG. 4B, the pH was elevated to 12, and scans were collected every 0.5 s (through 2.5 s and 3.5, 5.5, 9.5, and 54.5 shown). In FIG. 4C, porcine liver esterase (20 μL in 3 mL) was added (pH 7.4), and spectra were collected every 10 s. Hydrolysis of 2 (λmax 236 nm) to 1 (λmax 250 nm) was complete within 40 s (0.067 s^−1) under these conditions. […] Elevation of the intensity near 200 nm indicated formation of autoxidation products such as nitrite. Deaeration inhibited this peak (data not shown).
(§1) The rate constants of decomposition were measured spectrophotometrically by monitoring the decrease in absorbance of peaks at ˜240-250 nm characteristic of the diazeniumdiolate functionality. The hydrolysis medium consisted of the metal chelator diethylenetriaminepentaacetic acid (DTPA, 50 μM) in calcium- and magnesium-free Dulbecco's phosphate-buffered saline (PBS, pH 7.4). UV-visible spectroscopy was performed with a Hewlett-Packard 8453 diode-array spectrophotometer equipped with Agilent 89090A thermostat set to 37° C. The spectrophotometer was blanked after warming the cuvette containing buffer at the appropriate pH in the instrument heat block for 5 min. For esterase-containing reactions, porcine liver esterase (20 μL; Sigma; suspension in 3.2 M (NH4)2SO4, pH 8) was added to the reaction buffer before blanking. Upon addition of IPA/NO (1) or AcOM-IPA/NO (2) (≦10 μL of stock), the cuvette was capped and inverted to mix. Spectra were collected at 0.5- to 60-s intervals for time periods of 2-120 min or until A∞<0.05. Kinetic analysis was performed by fitting the data to an exponential decay (A=ΔAe^−kt+A∞) using KaleidaGraph v.3.1.

[2] = Hydrolysis at pH 11 followed by NMR; type: physicochemical
Experimental: Organic products of the hydrolysis of 1 and 2 were quantified by integrating their NMR spectra. For pH 7.4, 3.9 mM solutions in 0.1 M phosphate buffer were employed. For pH 11, 4.9 mM solutions of 1 and 2 in 50 mM sodium carbonate were studied. Samples were run on a Varian Inova 400 MHz NMR with a Dell Precision 390 workstation. The samples were run at 37° C. and water suppression was achieved by using the preset pulse sequence. Peaks were identified by comparison with authentic standards.

[3] = Spontaneous decomposition kinetics by UV spectrophotometry in PBS; type: physicochemical
Experimental: as §1
To gain insight into the mechanistic origins of this unexpected finding, the pH/rate profiles of the diazeniumdiolates 1 and 2 were explored. As previously established and shown in FIG. 3A, hydrolysis of 1 slowed as the pH was increased from 3 to 10, with a small increase in rate thereafter. This was the opposite of the results with 2, whose hydrolysis rate was essentially first order in hydroxide ion concentration between pH 5 and 11 (FIG. 3B).

[4] = NO quantified by chemiluminescence during hydrolysis; type: physicochemical; details: neutral pH
Experimental: In addition to HNO measurements as described above by reductive nitrosylation of metmyoglobin, NO was quantified by chemiluminescence assay, N2O by gas chromatography, and nitrite ion by the Griess assay.
Detection of HNO was also carried out using the chemiluminescence method in, 1 mM ferricyanide solution.

[5] = system: COX-2 mRNA; test: COX mRNA levels; type: cell-based; details: Control 1.0
Source text: PGE2 levels are a direct measure of COX-2 activity. […] Increased COX-2 expression in the presence of aspirin has been reported previously (Davies et al., Alimentary Pharm. & Ther. 11(6):1101-08 (1997))). Both DEA/NO and DEA/NO-aspirin seem to augment the effect of aspirin while IPA/NO and IPA/NO-aspirin nullifies the effect and brings it back to the control level (Table 3).

[6] = system: ventricular myocytes; test: Sarcomere shortening in isolated ventricular myocytes; type: cell-based, C57BL/6 male mice; details: 3 μM
Experimental: A stock solution of 2 in DMSO was freshly prepared prior to each experiment and stored on ice protected from the light. Liberase blendzyme 3 was purchased from Roche Diagnostics (Mannheim) while CaCl2, DMSO, and glucose were purchased from Merck (Darmstadt). Calcium-free perfusion buffer contained 113 mM NaCl, 4.7 mM KCl, 0.6 mM KH2PO4, 0.6 mM Na2HPO4, 1.2 mM MgSO4, 12 mM NaHCO3, 10 mM KHCO3, 30 mM taurine, 5.5 mM glucose, 10 mM 2,3-butanedione monoxime, and 10 mM 4-(2-hydroxyethyl)-1-piperazineethanesulfonic acid (HEPES) at pH 7.4. Digestion buffer contained an additional 0.1 mg/mL of recombinant collagenases/proteases (Liberase blendzyme 3) and 12.5 μM CaCl2. IonOptix solution for the sarcomere shortening measurements contained 135 mM NaCl, 4.7 mM KCl, 0.6 mM KH2PO4, 0.6 mM Na2HPO4, 1.2 mM MgSO4, 1.25 mM CaCl2, 20 mM glucose, and 10 mM HEPES at pH 7.46.
C57BL/6 male mice (13-15 weeks) were used in the present study. Ventricular myocytes were isolated from wild type hearts using a modified protocol of O'Connell et al., (AfCS Research Reports, 1(5): 1-9 (2003)). […] After further centrifugation, ionOptix buffer was added on the pellet and sarcomere shortening was assessed on field stimulation (1 Hz with 4-ms duration, 10 V) using a video-based sarcomere length detection system (IonOptix Corporation) at room temperature.

[7] = system: MB-231 breast cancer cell lines; test: DAF assay of cell membrane penetration, MB-231; details: MB-231 cell line
Experimental: (§2) Intracellular NO/HNO release from the derivatized NSAIDs was determined using 4-amino-5-methylamino-2′,7′-difluorofluoroescein diacetate (DAF-FM diacetate) as in Example 9.

[8] = system: MB-231 breast cancer cell lines
Experimental: as §2

[9] = porcine liver esterase 20 μL in 3 mL

Compound: CC(=O)OCO/N=[N+](\[O-])NC(C)C [Compound 2, O^2-(acetoxymethyl)1-(isopropylamino)diazen-1-ium-1,2-diolate]
rate of hydrolysis of 2 to 1 [1, 9]: 0.067 s⁻¹ | time to complete hydrolysis of 2 to 1 [1, 9]: ≤ 40 s | time to complete dissociation ([2]; 37° C., pH 11 carbonate buffer): ≤ 5 min | change in sarcomere shortening relative to baseline, versus 1 [6]: approximately 4 fold | hydrolysis rate relative to 1 ([3]; physiological pH): an order of magnitude slower | total amount of NO detected on hydrolysis ([4]; NO-specific chemiluminescence detector): less than 1 % of theoretical yield

Compound: CC(C)N[N+]([O-])=NOC(=O)c1cccnc1Nc1cccc(C(F)(F)F)c1 [IPA/NO-niflumic acid, O^2-(2-(3-(trifluoromethyl)phenylamino)nicotinate)-1-(N-isopropylamino)-diazen-1-ium-1,2-diolate]
cell membrane penetration [7]: penetrated cell membranes

Compound: CCN(CC)[N+]([O-])=N[O-].[Na+] [DEA/NO, O^2-Sodium 1-(N,N-Diethylamino)diazen-1-ium-1,2-diolate, reference compound]
COX-2 mRNA level relative to control [5]: 6.0

Continued, in another order:

rate of decay of 1 ([1]; FIG. 4C, esterase present): 0.0033 s⁻¹ | hydrolysis at pH 11 ([2]; pH 11): hydrolyzed slowly | rate of decay of 1 ([3]; FIG. 3A, PBS with 50 μM DTPA, 37° C.): 0.0012 s⁻¹ | hydrolysis rate relative to 2 ([3]; pH 11, more slowly than 2): 100 fold | species produced on spontaneous hydrolysis [4]: produced both NO and HNO
Compound: CC(C)N[N+]([O-])=N[O-].[Na+] [Compound 1, sodium 1-(N-isopropylamino)diazen-1-ium-1,2-diolate, reference compound]
COX-2 mRNA level relative to control [5]: 1.2

cell membrane penetration [8]: penetrated cell membranes
Compound: CCN(CC)[N+]([O-])=NOCOC(=O)Cc1c(C)n(C(=O)c2ccc(Cl)cc2)c2ccc(OC)cc12 [DEA/NO-indomethacin, O^2-(methyl2-(1-(4-chlorobenzoyl)-5-methoxy-2-methyl-1H-indol-3-yl)acetate)-1-(N,N-Diethylamino)-diazen-1-ium-1,2-diolate]

cell membrane penetration [8]: penetrated cell membranes
Compound: COc1ccc2c(c1)c(CC(=O)OCON=[N+]([O-])NC(C)C)c(C)n2C(=O)c1ccc(Cl)cc1 [IPA/NO-indomethacin, O^2-(methyl2-(1-(4-chlorobenzoyl)-5-methoxy-2-methyl-1H-indol-3-yl)acetate)-1-(N-isopropylamino)-diazen-1-ium-1,2-diolate]

Reference: patent US8633177B2, “Nitroxyl (HNO) releasing compounds and uses thereof in treating diseases” (The United States of America, as represented by the …, priority 2010, dated 2014)
